A word on the pIC50: it is −log10 of the IC50, conventionally taken in molar units.

The source of these data is US20120107417A1, “Effective Antitumor Treatments” (PHARMA MAR, S.A., priority 2000, published 2012).

One data set relates to sc transplanted TE671. The data set is described as follows: ET-743/DDP against sc transplanted TE671. It counts as in vivo, human. The conditions noted are these: single drugs at MTD or combination.
Another data set has as its system ovarian 1 A 9 tumor. The data set is described as follows: ET-743/DDP against ovarian 1A9 tumor in vivo. Further details: species or system human. The following applies: single agents. An excerpt:
The ovarian 1 A 9 tumor that is normally resistant to both ET-743 and DDP as single agents, in combination produced a tumor growth inhibition greater than 50%.

Data set [1] concerns human ovarian carcinoma HOC8. The data set can be described thus: ET-743/DDP against orthotopically transplanted HOC8. The following applies: HOC8 orthotopic, peritoneal nodules with ascites; single agents. The class given is in vivo.
In data set [2] the test system is human rabdomyosarcoma zenograft TE671. The data set is described as follows: ET-743/doxorubicin against TE671 xenograft in athymic (nude) mice. The class given is in vivo. On the procedure: In vivo: Single iv treatments (ET-743, 0.1 mg/Kg; DOX, 10 mg/Kg) were administered in nude mice when xenograft tumors weighed approximately 100 mg.
Data set [3] relates to murine fibrosarcoma UV2237. The data set can be described thus: ET-743/doxorubicin against murine fibrosarcoma UV2237 in mice. The class given is in vivo. The conditions noted are these: alone or combination.
A further data set relates to UV2237/ADR. The data set is described as follows: ET-743/doxorubicin against mdr-resistant subline UV2237/ADR in mice. It counts as in vivo, murine. The conditions noted are these: alone or combination.
For a further data set, the system named is HT-1080. The data set is described as follows: SRB cytotoxicity assay and Chou-Talalay combination index, HT-1080. It counts as cell-based, human. The conditions noted are these: Homo sapiens, HT-1080, 72 h; read-out: IC50 for human soft tissue sarcoma cells, HT-1080. How it is done:
(§1) Soft tissue sarcoma cell lines, HT-1080 and HS-18 were maintained as monolayer cultures in RP<I-1640 containing 10% fetal bovine serum.
(§2) Cytotoxicity to drugs was determined by SRB cytotoxicity assay carried out in 96-well microtiter plates as described. Cells were plated in duplicate wells (5000 cells/well) and exposed to drugs at different concentrations. Cells were fixed with 50% TCA solution for 1 h and 0.4% SRB (Sigma) was added to each well. After a 30 min incubation, the plate were washed with 1% acetic acid and read at 570 nm on a Biowhitaker microplate reader 2001. The wells with cells containing no drugs and with medium plus drugs but no cells were used as positive and negative controls, respectively.
(§3) Cells were seeded into 96-well plates, as described previously. Cells were treated with seven different concentrations of the single drugs or combinations mixture at 1:100 (ET-743: the other drugs) molar ratio. After 72 h exposure, growth inhibition was measured using the SRB assay.
(§4) Using the same experimental setup described above, we exposed cells to three different concentrations of drugs which represents the IC25, IC50, IC75 of ET-743, DXR, TMTX and paclitaxel, respectively. After 24 hours pre-treatment with ET743 or the combination drug, the second drugs were added to the respective wells for 48 h. Growth inhibition was determined using the SRB assay.)
(§5) The CI was calculated by the Chou-Talalay equation, which takes into account both potency (Dm or IC50) and the shape of the dose effect curve (the m value). The general equation for the classic isobologram (CI=1) is given by:
(§6) CI=(D)1/(Dx)1+(D)2/(Dx)2 (A)

The test system of another data set is HS-18. The data set is described as follows: SRB cytotoxicity assay and Chou-Talalay combination index, HS-18. The class given is cell-based, human. The conditions noted are these: Homo sapiens, 72 h; read-out: IC50 for human soft tissue sarcoma cells, HS-18. On the procedure:
as §1, §2, §3, §4, §5, §6

The subject of a further data set is HT-1080 cells. The data set can be described thus: Cell cycle analysis (propidium iodide, FACS), HT-1080. The class given is cell-based, human. On the procedure:
(§7) Exponentially growth cells were treated with or without drugs for several hours. Cells were then collected and fixed with ice-cold 70% methanol. DNA was stained with propidium iodide as described previously. Ten thousand stained cells were analyzed on a Becton Dickinson fluorescence-activated cell sorter (FACS).

The subject of another data set is HS-18 cells. The data set is described as follows: Cell cycle analysis (propidium iodide, FACS), HS-18. It counts as cell-based, human. On the procedure: as §7
The next data set deals with TE 671 cells. The data set can be described thus: Clonogenic assay ET-743/DOX, TE 671. The class given is cell-based, human. The conditions noted are these: 1 hr exposures, isobologram analysis and Combination Index. On the procedure: In vitro: The effect of each drug or combination after 1 hr exposures was evaluated by clonogenic assay.
Data set [4] can be described thus: Biodistribution/PK of DOX with ET-743 in nude mice with tumor xenografts. The conditions noted are these: DOX alone vs concomitant treatment with ET-743. It counts as in vivo. An excerpt:
ET-743 has shown activity in patients with sarcoma refractory to DOX and ifosfamide. In view of its potential as an effective drug, we investigated (1) the preclinical anti-tumor activity of ET-743/DOX combination against the human rhabdomyosarcoma TE 671 and (2) possible interactions between the drugs and their biodistribution in nude mice and tumor xenografts.
The pharmacokinetic (PK) evaluation of ET-743 given alone or in combination with DOX is underway.

For another data set, the system named is liver. The following applies: rat.
[5] abbreviates: single i.v. treatment at tumor approx. 100 mg, drug alone (ET-743 0.1 mg/kg; Dx 10 mg/kg).
The mark [6] stands for this setting: 24 h after treatment with approximate IC50 dose.
Where [7] appears, read: 72 h after treatment with approximate IC50 dose.

pIC50: −log10 of the molar value. Like-named read-outs stand apart in the source and are kept apart here.

Description for liver: In the light of the antiinflammatory activity of dex, we investigated its effect on liver damage induced by ET-743 in the rat. Female Wistar rats received a single iv dose of ET-743 (40 μg/kg). Some rats were pretreated with a single oral dose of dex either at 1, 5, 10 or 20 mg/kg 24 h prior to ET-743 treatment. Liver pathology and plasma concentrations of alkaline phophatase (ALP), aspartate aminotransferase (GOT) and total bilirubin (TB) were assessed up to 3 days post ET-743 administration. Conventional histological sections of the livers were examined by light microscopy.

With `N.N.[Cl][Pt][Cl]` [DDP, cisplatin], in the data set on sc transplanted TE671, the “antitumor effect in words” value is “partially sensitive”. Also, the figures for the “sensitivity of tumor to single agent” value (in the data set with ovarian 1 A 9 tumor; in data set [1]) were “resistant” and “partially sensitive”, respectively.

Turning to `COc1cccc2c1C(=O)c1c(O)c3c(c(O)c1C2=O)C[C@@](O)(C(=O)CO)C[C@@H]3O[C@H]1C[C@H](N)[C@H](O)[C@H](C)O1` [Dx, doxorubicin], the “antitumor effect in words” value in data set [2] (TE671 in mice, alone or combination) is “inactive or marginally active”; in data set [3], “effective”; in the data set on UV2237/ADR, “inactive or marginally active”. Moreover, the “Log 10 Cell Kill (LCK)” value in data set [2] (setting [5]) is reported as 0.33. Besides, in data set [2] (setting [5]), the “tumor weight inhibition (TWI)” value was determined as 50%. The negative-log IC50 (pIC50) was 7.60 in the data set with HT-1080 and 6.65 in the data set with HS-18. The figures for the “% G1” value in the data set with HT-1080 cells (setting [6]), in the data set on HT-1080 cells (setting [7]) and in the data set with HS-18 cells (setting [7]) were 36.1%, 46.2% and 1.3%, respectively. For the same compound, the “% S phase” value with HT-1080 cells (setting [6]) is on record as 17.5%; in the data set on HT-1080 cells (setting [7]) it was 5.3%; in the data set on HS-18 cells (setting [6]) it was 64.9%; with HS-18 cells (setting [7]) it was 63.8%. Further, the entries for the “% G2-M” value in the data set on HS-18 cells (setting [6]) and with HS-18 cells (setting [7]) were 25.0% and 34.9%, respectively. Moreover, the “anti-tumor activity / interaction in clonogenic assay” value in the data set on TE 671 cells is listed as “showed anti-tumor activity”. For the same compound, in [4], the “PK profile of DOX (plasma and tumor concentrations)” value is listed as “not influenced”.

As for `CC(=O)O[C@H]1C(=O)[C@@]2(C)[C@H]([C@H](OC(=O)c3ccccc3)[C@]3(O)C[C@H](OC(=O)[C@H](O)[C@@H](NC(=O)c4ccccc4)c4ccccc4)C(C)=C1C3(C)C)[C@]1(OC(C)=O)CO[C@@H]1C[C@@H]2O` [Paclitaxel], the pIC50 in the data set on HT-1080 was 8.89; with HS-18 it was 8.00. Besides, the “% G1” value in the data set with HT-1080 cells (setting [6]) was 45.4%; with HT-1080 cells (setting [7]), 86.0%; in the data set on HS-18 cells (setting [6]), 32.8%; in the data set on HS-18 cells (setting [7]), 23.5%. For the same compound, the “% G2-M” value is 17.3% in the data set on HT-1080 cells (setting [6]), 5.0% in the data set on HT-1080 cells (setting [7]), 15.5% with HS-18 cells (setting [6]) and 26.2% in the data set with HS-18 cells (setting [7]). Further, the “% S phase” value in the data set with HT-1080 cells (setting [6]) came out at 37.3%; in the data set with HT-1080 cells (setting [7]) it was 9.0%; in the data set with HS-18 cells (setting [6]) it was 52.5%; in the data set with HS-18 cells (setting [7]) it was 58.7%.

In the case of `C[C@@H]1C[C@H]2[C@@H]3CCC4=CC(=O)C=C[C@]4(C)[C@@]3(F)[C@@H](O)C[C@]2(C)[C@@]1(O)C(=O)CO` [dex, dexamethasone], the “protection against ET-743 liver damage” value with liver (dex 1 mg/kg single oral dose 24 h prior to ET-743) was “little protection”; in the data set on liver (dex 5 mg/kg single oral dose 24 h prior to ET-743), “moderately protective”. The “effect on ET-743-induced histopathological changes and elevation of plasma ALP, GOT and TB” value with liver (dex 10 mg/kg single oral dose 24 h prior to ET-743 40 μg/kg iv) and in the data set with liver (dex 20 mg/kg single oral dose 24 h prior to ET-743 40 μg/kg iv) was “totally abrogated” in each case.

For the compound `COc1cc(NCc2ccc3nc(N)nc(N)c3c2C)cc(OC)c1OC` [TMTX, trimetrexate], the negative-log IC50 (pIC50) is 8.22 with HT-1080 and 4.15 with HS-18. The “% G1” value worked out at 31.9% in the data set with HT-1080 cells (setting [6]), 32.0% with HT-1080 cells (setting [7]), 44.2% in the data set on HS-18 cells (setting [6]) and 35.5% with HS-18 cells (setting [7]). Moreover, the “% G2-M” value with HT-1080 cells (setting [6]) worked out at 11.3%; in the data set on HT-1080 cells (setting [7]), 14.4%; in the data set on HS-18 cells (setting [6]) it was 1.9%; with HS-18 cells (setting [7]), 7.0%. For the same compound, the “% S phase” value came out at 56.8% in the data set with HT-1080 cells (setting [6]), 53.7% with HT-1080 cells (setting [7]), 53.8% in the data set on HS-18 cells (setting [6]) and 57.6% with HS-18 cells (setting [7]).
